{"source": "PubChem BioAssay AID1963445", "about": "(Molecular Pharmacology Branch, DTP, NCI, 2024)", "tested_on": "MCF7 complex spheroid growth, % test/control", "assay": "Anticancer human tumor MCF7 cell line growth inhibition [Asc];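 on all read-outs here: spheroids exposed to compounds for 7 days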;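 on viability, T/C: 100% = DMSO vehicle control wells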", "details": "for pIC50: curve of first compound; for viability, T/C: stronger effect = lower value", "method_in_brief": "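Tumor cells were grown as multicellular spheroids with stromal HUVEC and mesenchymal stem cells and treated singly or in combination. Concentrations fell in half-log steps from the clinical Cmax, or from 10 microM where none was known.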", "note": "pIC50: −log10 of the molar value.", "data": [{"smiles": "C=CC(=O)N1CCN(c2nc(=O)n(-c3c(C)ccnc3C(C)C)c3nc(-c4c(O)cccc4F)c(F)cc23)C(C)C1", "note": "(configuration not stated) + Cc1c(S(C)(=O)=O)c(-c2cc(F)cc(N3CCN(c4ccc(NS(=O)(=O)c5ccc(NC(CCN6CCC(C(=O)OCCCP(=O)(O)O)CC6)CSc6ccccc6)c(S(=O)(=O)C(F)(F)F)c5)cc4)CC3)c2)c(-c2ccc(Cl)cc2)n1C(C)C", "values": [{"measurement": "pIC50", "setting": "second compound 0.0316 µM", "result": "< 5.00"}, {"measurement": "pIC50", "setting": "second compound 0.1 µM", "result": "< 5.00"}, {"measurement": "pIC50", "setting": "second compound 0.316 µM", "result": "< 5.00"}, {"measurement": "pIC50", "setting": "second compound 1 µM", "result": "< 5.00"}, {"measurement": "pIC50", "setting": "second compound 3.16 µM", "result": "< 5.00"}, {"measurement": "pIC50", "setting": "second compound 10 µM", "result": "< 5.00"}, {"measurement": "viability, T/C", "setting": "second compound 0.0316 µM, first compound 0.0316 µM", "result": 101, "unit": "%"}, {"measurement": "viability, T/C", "setting": "second compound 0.0316 µM, first compound 0.1 µM", "result": 105, "unit": "%"}, {"measurement": "viability, T/C", "setting": "second compound 0.0316 µM, first compound 0.316 µM", "result": 99.7, "unit": "%"}, {"measurement": "viability, T/C", "setting": "second compound 0.0316 µM, first compound 1 µM", "result": 95.5, "unit": "%"}, {"measurement": "viability, T/C", "setting": "second compound 0.0316 µM, first compound 3.16 µM", "result": 112, "unit": "%"}, {"measurement": "viability, T/C", "setting": "second compound 0.0316 µM, first compound 10 µM", "result": 85.8, "unit": "%"}, {"measurement": "viability, T/C", "setting": "second compound 0.1 µM, first compound 0.0316 µM", "result": 92.9, "unit": "%"}, {"measurement": "viability, T/C", "setting": "second compound 0.1 µM, first compound 0.1 µM", "result": 89.6, "unit": "%"}, {"measurement": "viability, T/C", "setting": "second compound 0.1 µM, first compound 0.316 µM", "result": 89, "unit": "%"}, {"measurement": "viability, T/C", "setting": "second compound 0.1 µM, first compound 1 µM", "result": 110, "unit": "%"}, {"measurement": "viability, T/C", "setting": "second compound 0.1 µM, first compound 3.16 µM", "result": 92.3, "unit": "%"}, {"measurement": "viability, T/C", "setting": "second compound 0.1 µM, first compound 10 µM", "result": 87.4, "unit": "%"}, {"measurement": "viability, T/C", "setting": "second compound 0.316 µM, first compound 0.0316 µM", "result": 101, "unit": "%"}, {"measurement": "viability, T/C", "setting": "second compound 0.316 µM, first compound 0.1 µM", "result": 92.7, "unit": "%"}, {"measurement": "viability, T/C", "setting": "second compound 0.316 µM, first compound 0.316 µM", "result": 109, "unit": "%"}, {"measurement": "viability, T/C", "setting": "second compound 0.316 µM, first compound 1 µM", "result": 90.1, "unit": "%"}, {"measurement": "viability, T/C", "setting": "second compound 0.316 µM, first compound 3.16 µM", "result": 89.5, "unit": "%"}, {"measurement": "viability, T/C", "setting": "second compound 0.316 µM, first compound 10 µM", "result": 81.3, "unit": "%"}, {"measurement": "viability, T/C", "setting": "second compound 1 µM, first compound 0.0316 µM", "result": 87.2, "unit": "%"}, {"measurement": "viability, T/C", "setting": "second compound 1 µM, first compound 0.1 µM", "result": 91.4, "unit": "%"}, {"measurement": "viability, T/C", "setting": "second compound 1 µM, first compound 0.316 µM", "result": 102, "unit": "%"}, {"measurement": "viability, T/C", "setting": "second compound 1 µM, first compound 1 µM", "result": 97.4, "unit": "%"}, {"measurement": "viability, T/C", "setting": "second compound 1 µM, first compound 3.16 µM", "result": 101, "unit": "%"}, {"measurement": "viability, T/C", "setting": "second compound 1 µM, first compound 10 µM", "result": 89.9, "unit": "%"}, {"measurement": "viability, T/C", "setting": "second compound 3.16 µM, first compound 0.0316 µM", "result": 92.9, "unit": "%"}, {"measurement": "viability, T/C", "setting": "second compound 3.16 µM, first compound 0.1 µM", "result": 94.9, "unit": "%"}, {"measurement": "viability, T/C", "setting": "second compound 3.16 µM, first compound 0.316 µM", "result": 103, "unit": "%"}, {"measurement": "viability, T/C", "setting": "second compound 3.16 µM, first compound 1 µM", "result": 94.1, "unit": "%"}, {"measurement": "viability, T/C", "setting": "second compound 3.16 µM, first compound 3.16 µM", "result": 89.5, "unit": "%"}, {"measurement": "viability, T/C", "setting": "second compound 3.16 µM, first compound 10 µM", "result": 86.1, "unit": "%"}, {"measurement": "viability, T/C", "setting": "second compound 10 µM, first compound 0.0316 µM", "result": 222, "unit": "%"}, {"measurement": "viability, T/C", "setting": "second compound 10 µM, first compound 0.1 µM", "result": 143, "unit": "%"}, {"measurement": "viability, T/C", "setting": "second compound 10 µM, first compound 0.316 µM", "result": 171, "unit": "%"}, {"measurement": "viability, T/C", "setting": "second compound 10 µM, first compound 1 µM", "result": 195, "unit": "%"}, {"measurement": "viability, T/C", "setting": "second compound 10 µM, first compound 3.16 µM", "result": 233, "unit": "%"}, {"measurement": "viability, T/C", "setting": "second compound 10 µM, first compound 10 µM", "result": 168, "unit": "%"}]}]}
